The results in this text go back to PubChem BioAssay (NCI).

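Step 1: Grow cells in 96-well plates. Step 2: Expose to compound for 48 hours at 5 concentrations. Step 3: Interpolate endpoints linearly; if unreached, use highest concentration. Definition used: TGI = concentration required for complete inhibition of growth.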 Bounds are passed on as bounds.

Some test systems named below: A498 renal; HCC-2998 colon; HT29 colon; KM12 colon; MDA-MB-435; NCI-H226 lung; NCI/ADR-RES ovarian; OVCAR-3 ovarian; OVCAR-8 ovarian; SF-268 CNS; SF-295 CNS; SNB-75 CNS; T-47D breast; UACC-62 melanoma; TK-10 renal; MDA-N.
Common to all, as to test: NCI tumour cell line growth inhibition, 48 h

As to `O=C(NN1C(=O)C(Cl)C1c1ccc(Cl)cc1)c1c(Cl)c(Cl)c(Cl)c(Cl)c1-c1nc2ccccc2[nH]1` (centres undefined), the TGI in the experiment on A498 renal was 63.6 µM; with HCC-2998 colon, 30.9 µM; in the experiment with HT29 colon, 75.8 µM; with KM12 colon, above 100 µM; with MDA-MB-435 it was 80.5 µM; with NCI-H226 lung it was 65.7 µM. For the same compound, the TGI with NCI/ADR-RES ovarian is above 100 µM; in the experiment with OVCAR-3 ovarian, above 100 µM; with OVCAR-8 ovarian, 43.7 µM; in the experiment with SF-268 CNS, above 100 µM; in the experiment with SF-295 CNS, above 100 µM; with SNB-75 CNS, 57 µM. The TGI was 25 µM in the experiment with T-47D breast and 33.9 µM in the experiment on UACC-62 melanoma.
`CCC(CC)NC1=C(NC(C)=O)C(=O)c2ccccc2C1=O`: the TGI in the experiment on HCC-2998 colon, in the experiment with HT29 colon, in the experiment with KM12 colon, in the experiment with NCI-H226 lung, with OVCAR-3 ovarian and in the experiment on OVCAR-8 ovarian was above 50 µM each time. Further, the TGI in the experiment on SF-268 CNS, in the experiment with SF-295 CNS, in the experiment with SNB-75 CNS, in the experiment on TK-10 renal and in the experiment with UACC-62 melanoma was above 50 µM throughout.
As for `O=S(Cc1ccccc1)c1nc2ccccc2nc1-c1cccs1` (centres undefined), the TGI in the experiment on HCC-2998 colon is 26.1 µM; with HT29 colon, 27.1 µM; in the experiment on KM12 colon, 34.5 µM; with NCI-H226 lung it was 16.7 µM; in the experiment with OVCAR-3 ovarian, 24 µM; with OVCAR-8 ovarian, 38.8 µM. Moreover, the TGI with SF-268 CNS came out at 51.4 µM; in the experiment with SF-295 CNS, 52.9 µM; with SNB-75 CNS, 36.1 µM; with TK-10 renal, 28 µM.
Regarding `N[C@@H]1CCN(c2c(F)cc3c(=O)c(C(=O)O)cn4c3c2Oc2c-4ccc3c2ccc2ccccc23)C1`, the TGI is above 100 µM in the experiment on A498 renal; 3.56 µM in the experiment on HCC-2998 colon; above 100 µM with HT29 colon; above 100 µM with KM12 colon; above 100 µM with MDA-MB-435; above 100 µM with MDA-N. In addition, the TGI in the experiment with NCI-H226 lung, in the experiment with NCI/ADR-RES ovarian, in the experiment with OVCAR-3 ovarian, in the experiment with OVCAR-8 ovarian, in the experiment with SF-268 CNS and in the experiment with SF-295 CNS was above 100 µM each time. For the same compound, the TGI with TK-10 renal is 40 µM; in the experiment with UACC-62 melanoma, above 100 µM.
Regarding `N#C[S-].[La+3].c1cnc2c(c1)ccc1cccnc12.c1cnc2c(c1)ccc1cccnc12.c1cnc2c(c1)ccc1cccnc12`, the TGI came to 13.5 µM with A498 renal; 18.8 µM in the experiment on HCC-2998 colon; 18 µM in the experiment on HT29 colon; 22.6 µM in the experiment with KM12 colon; 4.63 µM in the experiment on NCI-H226 lung; 19.2 µM in the experiment on OVCAR-3 ovarian. Further, the TGI with OVCAR-8 ovarian stood at 11.5 µM; with SF-268 CNS, 18.9 µM; with SF-295 CNS it was 7.94 µM; in the experiment with SNB-75 CNS, 29 µM; with TK-10 renal, 25.4 µM; in the experiment with UACC-62 melanoma, 4.8 µM.
For the compound `CCCCCCCC(CC(=O)NC(CO)C(=O)NC(CO)CC(C)C)OC(=O)CC(CCCCCCC)OC(=O)CC(CCCCCCC)OC1OC(C)C(O)C(OC2OC(C)C(OC(C)=O)C(O)C2O)C1O` (centres undefined), the TGI in the experiment on A498 renal amounted to 23.5 µM; with HCC-2998 colon, 17.2 µM; in the experiment with HT29 colon it was 13 µM; with KM12 colon, 14.3 µM; in the experiment with MDA-MB-435, 19.4 µM; with MDA-N, 14 µM. The TGI is 35.5 µM with NCI-H226 lung; 24.2 µM in the experiment with OVCAR-3 ovarian; 23.3 µM in the experiment on OVCAR-8 ovarian; 23.3 µM in the experiment on SF-268 CNS; 24.3 µM in the experiment with SF-295 CNS; 16.3 µM with SNB-75 CNS. Besides, the TGI in the experiment on T-47D breast was determined as 23.1 µM; in the experiment on TK-10 renal it was 29.8 µM; in the experiment on UACC-62 melanoma, 19 µM.
As to `CN(C)/C=C/C(=CC=[N+](C)C)/C=C/N(C)C`, the TGI in the experiment on A498 renal, with HCC-2998 colon, in the experiment with HT29 colon, in the experiment with KM12 colon, in the experiment with NCI-H226 lung and in the experiment with OVCAR-3 ovarian was above 100 µM each time. In addition, the TGI in the experiment on OVCAR-8 ovarian, in the experiment with SF-268 CNS, with SF-295 CNS, with TK-10 renal and with UACC-62 melanoma was above 100 µM throughout.
As for `CC12C=CC(C)(C3C(=O)C4C(C(=O)C31)C1(C)C=CC4(C)S1=O)S2=O` (centres undefined), the TGI in the experiment on HCC-2998 colon, with HT29 colon, in the experiment on KM12 colon, with MDA-N, in the experiment on NCI-H226 lung and with NCI/ADR-RES ovarian was above 100 µM each time. For the same compound, the TGI with OVCAR-3 ovarian, in the experiment with OVCAR-8 ovarian, with SF-268 CNS, with SF-295 CNS, with SNB-75 CNS and in the experiment on TK-10 renal was above 100 µM in each case. This compound also showed a TGI with UACC-62 melanoma above 100 µM.
Turning to `CC1(C)OCN(c2ccc(N3CCOCC3)cc2)Cn2c1nc1ccccc12`, the TGI in the experiment with A498 renal, with HCC-2998 colon, in the experiment on HT29 colon, in the experiment on KM12 colon, in the experiment with NCI-H226 lung and in the experiment on OVCAR-3 ovarian was above 100 µM throughout. Moreover, the TGI with OVCAR-8 ovarian, in the experiment with SF-268 CNS, in the experiment with SF-295 CNS, in the experiment with SNB-75 CNS, in the experiment on TK-10 renal and in the experiment on UACC-62 melanoma was above 100 µM in each case.
On to `COc1cc(C=O)c(-c2c(C=O)ccc3c2OCO3)c(OC)c1OC`, for which the TGI in the experiment with A498 renal, in the experiment on HCC-2998 colon, in the experiment with HT29 colon, in the experiment on KM12 colon, in the experiment with NCI-H226 lung and with OVCAR-3 ovarian was above 100 µM throughout. For the same compound, the TGI with OVCAR-8 ovarian, in the experiment with SF-268 CNS, in the experiment on SF-295 CNS, in the experiment with SNB-75 CNS, in the experiment with TK-10 renal and with UACC-62 melanoma was above 100 µM in each case.
As to `CNC1(c2cc3ccccc3s2)CCCCC1`, the TGI with A498 renal was above 100 µM; with HCC-2998 colon, 28.7 µM; with HT29 colon it was 67.8 µM; with KM12 colon, 43.1 µM; in the experiment on MDA-MB-435, 36.6 µM; in the experiment with MDA-N, 39.9 µM. Further, the TGI in the experiment with NCI-H226 lung was 91.3 µM; with NCI/ADR-RES ovarian, above 100 µM; with OVCAR-3 ovarian it was above 100 µM; in the experiment on OVCAR-8 ovarian, above 100 µM; in the experiment on SF-268 CNS, 42.8 µM; with SF-295 CNS, above 100 µM. The TGI was 99.3 µM in the experiment with SNB-75 CNS, above 100 µM with TK-10 renal and 49 µM with UACC-62 melanoma.
